Measurements from patent US10221190B2, “Biguanide compounds and use thereof” (IMMUNOMET THERAPEUTICS INC., priority 2013, dated 2019).
pIC50: −log10 of the molar value.

tested on: HCT116 cell; assay: Inhibitory activity against cancer cells (MTT cell viability), HCT116; assay type: cell-based, human; details: Homo sapiens, HCT 116, 48 hr incubation
Protocol: The inhibitory activities of biguanide derivatives against cancer cells were evaluated in the cell line SK-MEL-28 derived from human Melanoma cell, Miapaka-2 cell line derived from human pancreatic cancer cell and HCT116 cell line derived from human colorectal cancer cell by measuring the concentration that inhibits 50% of the growth of the cell lines (the half maximal inhibitory concentration, IC50).
Firstly, SK-MEL-28 cells were grown to be density of 5,000 cells/well in RPMI-1640 media supplemented with 10% (v/v) bovine calf serum, on 96-well plates for 16 hr. To measure the IC50 of each compound, the cells were incubated for 48 hr with the 100 mM PBS stock compounds at an amount of 10 mM, 1 mM, 200 uM, 40 uM, 8 uM, 1.6 uM, 0.32 uM or 0.064 uM; 50 mM PBS and EtOH stock compounds at an amount of 1 mM, 200 uM, 40 uM, 8 uM, 1.6 uM, 0.32 uM and 0.064 uM; and 50 mM DMSO stock compounds at an amount of 100 uM, 25 uM, 6.25 uM, 1.56 uM, 0.39 uM, 0.10 uM and 0.02 uM, respectively. To test the viable cells after incubation with each compound, the cell cultures were incubated additionally for 2 hr in the presence of MTT. The produced formazan crystals were dissolved with dimethyl sulfoxide and then measured by detecting the absorbance at 560 nm.
After the 48 hr incubation, the viable cells were counted on the well plates treated with the compounds of the Examples relative to the count of the viable cells on the non-treated plates, and then was represented as the cell viability (%). By using the cell viability (%) result, the cell viability curve was plotted, and IC50 was calculated from the curve to evaluate the inhibitory activity against cancer cells.
The inhibitory activities of biguanide derivatives against cancer cells of Miapaca-2 cell and HCT116 cell were evaluated according to the substantially same method as described in SK-MEL-28 cell, except that DMEM media supplemented with 10% (v/v) bovine calf serum was used instead of RPMI-1640 media supplemented with 10% (v/v) bovine calf serum for SK-MEL-28 cell.

Row | Compound | pIC50
1 | N=C(NC(=N)Nc1cnccn1)Nc1ccc(C(F)(F)F)cc1 [Example 67, N1-2-pyrazine-N5-(4-trifluoromethyl)phenyl biguanide] | 4.29
2 | COc1ccc2[nH]c(NC(=N)N3CCCC3)nc2c1 [Example 95, N-(5-methoxy-1H-benzo[d]imidazol-2-yl)pyrrolidine-1-carboximidamide] | < 4.00
3 | N=C(Nc1nc2cc(F)ccc2[nH]1)N1CCCC1 [Example 93, N-(5-fluoro-1H-benzo[d]imidazol-2-yl)pyrrolidine-1-carboximidamide] | < 4.00
4 | CC1CCCCN1C(=N)NC(=N)Nc1ccc(CCNC(=O)CCCCC2CC3NC(=O)NC3S2)cc1 (stereo not shown) [Example 78, N-(4-(3-(imino(2-methylpiperidin-1-yl)methyl)guanidino)phenethyl)-5-(2-oxohexahydro-1H-thieno[2,3-d]imidazol-5-yl)pentanamide] | < 4.00
5 | N=C(NCc1ccc(C(F)(F)F)cc1)NC(=N)Nc1cccnc1 [Example 64, N1-3-pyridine-N5-(4-trifluoromethyl)benzyl biguanide] | 4.53
6 | N=C(NC(=N)N1CCCC1)Nc1ccc(NC(=O)CCCCC2CC3NC(=O)NC3S2)cc1 (stereo not shown) [Example 82, N-(4-(3-(imino(pyrrolidin-1-yl)methyl)guanidino)phenyl)-5-(2-oxohexahydro-1H-thieno[2,3-d]imidazol-5-yl)pentanamide] | < 4.00
7 | N=C(NCc1ccc(C(=O)N2CCCCC2)cc1)NC(=N)N1CCCC1 [Example 25, N—(N-(4-(piperidine-1-carbonyl)benzyl)carbamimidoyl)pyrrolidine-1-carboximidamide] | < 4.00
8 | N=C(NC(=N)N1CCCC1)Nc1ccc(CNC(=O)c2ccccc2-c2c3ccc(=O)cc-3oc3cc(O)ccc23)cc1 [Example 83, 2-(6-hydroxy-3-oxo-3H-xanthen-9-yl)-N-(4-(3-(imino(pyrrolidin-1-yl)methyl)guanidino)benzyl)benzamide] | 4.25
9 | N=C(NC(=N)Nc1cccnc1)Nc1ccc(C(F)(F)F)cc1 [Example 62, N1-3-pyridine-N5-(4-trifluoromethyl)phenyl biguanide] | < 4.00
10 | N=C(NC(=N)NC1CCCC1)Nc1ccc(F)cc1 [Example 69, N1-cyclopentyl-N5-(4-fluoro)phenyl biguanide] | 4.16
11 | N=C(NC(=N)N1CCc2ccccc21)Nc1ccc(Oc2ccccc2)cc1 [Example 90, N—(N-(4-phenoxyphenyl)carbamimidoyl)indoline-1-carboximidamide] | 4.56
12 | C[C@@H]1CCC[C@H](C)N1C(=N)NC(=N)Nc1ccc(CCNC(=O)CCCCC2CC3NC(=O)NC3S2)cc1 (stereo partly drawn) [Example 81, N-(4-(3-(((2R,6S)-2,6-dimethylpiperidin-1-yl)(imino)methyl)guanidino)phenethyl)-5-(2-oxohexahydro-1H-thieno[2,3-d]imidazol-5-yl)pentanamide] | < 4.00
13 | N=C(N)NC(=N)Nc1cccc(Cl)c1Cl [Example 59, N5-(2,3-dichloro)phenyl biguanide] | < 4.00
14 | N=C(NC(=N)N1CCCC1)Nc1ccc(CCNC(=O)CCCCC2CC3NC(=O)NC3S2)cc1 (stereo not shown) [Example 77, N-(4-(3-(imino(pyrrolidin-1-yl)methyl)guanidino)phenethyl)-5-(2-oxohexahydro-1H-thieno[2,3-d]imidazol-5-yl)pentaneamide] | < 4.00
15 | CN(C(=N)NC(=N)N1CCCC1)c1c(F)cccc1F [Example 4, N1-pyrrolidine-N5-(2,6-difluoro-N5-methyl)phenyl biguanide] | < 4.00
16 | CC1CCCN(C(=N)NC(=N)Nc2ccc(CNC(=O)c3ccccc3-c3c4ccc(=O)cc-4oc4cc(O)ccc34)cc2)C1 (stereo not shown) [Example 86, 2-(6-hydroxy-3-oxo-3H-xanthene-9-yl)-N-(4-(3-(imino(3-methylpiperidine-1-yl)methyl)guanidino)benzyl)benzamide] | 4.27
17 | N=C(NC(=N)N1CCCC1)Nc1ccc(CCN)cc1 [Example 47] | < 4.00
18 | N=C(NCc1ccco1)NC(=N)Nc1ccc(Cl)cc1 [Example 70, N1-furan-2-ylmethyl-N5-(4-chloro)phenyl biguanide] | 4.87
19 | C[C@@H]1CCC[C@H](C)N1C(=N)NC(=N)Nc1ccc(CNC(=O)c2ccccc2-c2c3ccc(=O)cc-3oc3cc(O)ccc23)cc1 [Example 84, N-(4-(3-(((2R,6S)-2,6-dimethylpiperidin-1-yl)(imino)methyl)guanidino)benzyl)-2-(6-hydroxy-3-oxo-3H-xanthen-9-yl)benzamide] | 4.56

Results, then the molecule that gave them:

Row | pIC50 | Compound
20 | < 4.00 | CN1CCN(C(=N)NC(=N)NCc2ccc(F)c(OC(F)(F)F)c2)CC1 [Example 41, N1-4-methyl piperazine-N5-(4-fluoro-3-trifluoromethoxy)benzyl biguanide]
21 | 4.47 | CCN1CCN(C(=N)NC(=N)Nc2ccc(OC(F)(F)F)cc2)CC1 [Example 45, N1-4-ethyl piperazine-N5-(4-trifluoromethoxy)phenyl biguanide]
22 | < 4.00 | C[C@@H]1CCC[C@H](C)N1C(=N)NC(=N)Nc1ccc(CCN)cc1 [Example 46]
23 | < 4.00 | CN(C)C(=N)NC(=N)Nc1ccc(SCC(=O)N2CCCCC2)cc1 [Example 61, N1,N1-dimethyl-N5-4-(2-oxo-2-(piperidin-1-yl)ethylthio)phenyl biguanide]
24 | 4.93 | CN1CCN(C(=N)NC(=N)Nc2ccc(Cl)c(C(F)(F)F)c2)CC1 [Example 38, N1-4-methyl piperazine-N5-(4-chloro-3-trifluoromethyl)phenyl biguanide]
25 | < 4.00 | COc1ccc(NC(=N)NC(=N)N2CCCC2)cc1Cl [Example 3, N1-pyrrolidine-N5-(3-chloro-4-methoxy)phenyl biguanide]
26 | < 4.00 | CC1CCCN(C(=N)NC(=N)Nc2ccc(CCN)cc2)C1 (stereo not shown) [Example 50]
27 | 4.49 | CN1CCN(C(=N)NC(=N)Nc2ccc(F)c(C(F)(F)F)c2)CC1 [Example 35, N1-4-methyl piperazine-N5-(4-fluoro-3-trifluoromethyl)phenyl biguanide]
28 | < 4.00 | CC1CCCCN1C(=N)NC(=N)Nc1ccc(CCN)cc1 (stereo not shown) [Example 48]
29 | 4.30 | N=C(N)NC(=N)Nc1ccc(SC(F)(F)F)cc1 [Example 60, N5-(4-trifluoromethylthio)phenyl biguanide]
30 | < 4.00 | COc1ccc(NC(=N)NC(=N)N2CCCC2)cc1 [Example 2, N1-pyrrolidine-N5-(4-methoxy)phenyl biguanide]
31 | 5.16 | N=C(NC(=N)N1CCCC1)Nc1cccc(-c2ccccc2)c1 [Example 8, N1-pyrrolidine-N5-(N-biphenyl-3-yl) biguanide]
32 | < 4.00 | N=C(N)NC(=N)Nc1ccc(F)cc1 [Example 55, N5-4-fluorophenyl biguanide]
33 | < 4.00 | N=C(NC(=N)Nc1cccnc1)Nc1ccc(OC(F)(F)F)cc1 [Example 63, N1-3-pyridine-N5-(4-trifluoromethoxy)phenyl biguanide]
34 | < 4.00 | CN1CCN(C(=N)NC(=N)NCc2ccc(C(F)(F)F)c(F)c2)CC1 [Example 42, N1-4-methyl piperazine-N5-(3-fluoro-4-trifluoromethyl)benzyl biguanide]
35 | 4.37 | CN1CCN(C(=N)NC(=N)Nc2ccc(C(F)(F)F)c(F)c2)CC1 [Example 44, N1-4-methyl piperazine-N5-(3-fluoro-4-trifluoromethyl)phenyl biguanide]
36 | < 4.00 | N=C(NC(=N)N1CC[C@H](O)C1)Nc1ccc(SCC(=O)N2CCCCC2)cc1 [Example 29, (S)-3-hydroxy-N—(N-(4-(2-oxo-2-(piperidin-1-yl)ethylthio)phenyl)carbamimidoyl)pyrrolidine-1-carboximidamide]
37 | 5.11 | N=C(NC(=N)N1CCC(F)(F)C1)Nc1ccc(OC(F)(F)F)cc1 [Example 51, N1-3,3-difluoro pyrrolidine-N5-(4-trifluoromethoxy)phenyl biguanide]
38 | 4.03 | CN1CCN(C(=N)NC(=N)Nc2ccc(Br)cc2)CC1 [Example 31, N1-4-methyl piperazine-N5-(4-bromo)phenyl biguanide]
39 | 5.19 | N=C(NC(=N)N1CCCC1)Nc1ccc(-c2cccc(F)c2)cc1 [Example 11, N1-pyrrolidine-N5-(3′-fluorobiphenyl-4-yl) biguanide]
40 | 4.09 | N=C(NCCc1ccc(F)cc1)NC(=N)N1CCCC1 [Example 12, N1-pyrrolidine-N5-(4-fluoro)phenethyl biguanide]
41 | < 4.00 | N=C(NC(=N)N1CC[C@@H](O)C1)Nc1ccc(OC(F)(F)F)cc1 [Example 19, N1-(R)-3-hydroxy pyrrolidine-N5-(4-trifluoromethoxy)phenyl biguanide]
42 | 5.06 | N=C(NCc1ccco1)NC(=N)Nc1ccc(C(F)(F)F)cc1 [Example 72, N1-furan-2-ylmethyl-N5-(4-trifluoromethyl)phenyl biguanide]
43 | 5.09 | N=C(NC(=N)Nc1ccc(-c2ccccc2)cc1)Nc1ccc(OC(F)(F)F)cc1 [Example 75, N1-(4-trifluoromethoxy)phenyl-N5-(N-biphenyl-4-yl) biguanide]
